Tests used:
[1] = biological target: T1, HCV polymerase (NS5B570n-Con1) (Hepatitis C virus genotype 1b, UniProt Q9WMX2); experiment: biochemical; set-up: species or system HCV Con1 strain;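 further: recombinant His-tagged enzyme from E. coli, radiolabeled nucleotide incorporation into acid-insoluble RNA read by scintillation after filtration, no-enzyme background subtracted, activity relative to positive control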
T1 construct: contains a 21 amino acid deletion at the C-terminus relative to the full-length HCV polymerase; 6-histidine (N); made in house; host or cells: E. coli strain BL21(DE) pLysS (pET17b)

[2] = IC50 HCV NS5B RNA Polymerase Assay, values without asterisk, 20 nM NS5B570n-Con1 enzyme, 20 nM cIRES RNA template
[3] = IC50 HCV NS5B RNA Polymerase Assay (values with asterisk), values with asterisk: cIRES RNA template, 3 nM NS5B570n-Con1

Compound | melting point [°C] | IC50 [1, 2] [nM] | IC50 [1, 3] [nM]
CS(=O)(=O)Nc1ccc(/C=C/c2cc(-c3ccc[nH]c3=O)cc(C3(CO)CC3)c2)cc1 | 148 to 150 |  | 
COc1c(/C=C/c2ccc(NS(C)(=O)=O)cn2)cc(-c2ccc[nH]c2=O)cc1C(C)(C)C | 293 to 295 |  | 
COc1c(/C=C/c2ccc(NS(C)(=O)=O)cc2)cc(-c2cc(F)cn(COC(=O)[C@@H](N)C(C)C)c2=O)cc1C(C)(C)C | 188 to 190 |  | 
COc1c(/C=C/c2ccc(NS(C)(=O)=O)cc2)cc(-c2cc(F)cn(COP(=O)(O)O)c2=O)cc1C(C)(C)C | 175 to 178 |  | 
CC(C)(C)c1ccc(O)c(-c2ccc[nH]c2=O)c1 [I-2] | 211 to 212 | 3580 | 
Cc1cc(-c2ccc[nH]c2=O)cc(C(C)(C)C)c1 [I-3] | 224 to 225 | 525 | 
CCOc1ccc(-c2ccc[nH]c2=O)cc1C(C)(C)C [I-5] | 201 to 202 | 4680 | 
CC(C)(C)c1cc(-c2ccc[nH]c2=O)ccc1OC(F)F [I-6, 3-(3-tert-Butyl-4-difluoromethoxy-phenyl)-1H-pyridin-2-one] | 174 to 175 | 2570 | 
Cc1cc(-c2cc(C)c[nH]c2=O)cc(C(C)(C)C)c1 [I-7] | 212 to 213 | 3260 | 
Cc1cc(-c2cc(Cl)c[nH]c2=O)cc(C(C)(C)C)c1 [I-8] | 232 to 233 | 1960 | 
CCC(C)(C)c1cc(Br)c(O)c(-c2ccc[nH]c2=O)c1 [I-9] | 257.2 to 257.7 | 3100 | 
CC(C)(C)c1cc(CO)c(O)c(-c2ccc[nH]c2=O)c1 [I-10] | 167 to 168 | 1600 | 
Cc1cc(C(C)(C)C)cc(-c2ccc[nH]c2=O)c1O [I-11] | 207 to 208.5 | 340 | 
CC(C)(C)c1cc(Br)c(O)c(-c2ccc[nH]c2=O)c1 [I-13] | 243.4 to 246.2 | 360 | 
CCc1cc(C(C)(C)C)cc(-c2ccc[nH]c2=O)c1O [I-14] | 224.2 to 226.2 | 332 | 
CC(C)(C)c1cc(-c2ccccc2)c(O)c(-c2ccc[nH]c2=O)c1 [I-15] | 235.8 to 237 | 2920 | 
CC(C)(C)c1cc(Cl)c(O)c(-c2ccc[nH]c2=O)c1 [I-16] | 211.4 to 213.5 | 532 | 
CC(C)(C)c1cc(Cc2ccccc2)c(O)c(-c2ccc[nH]c2=O)c1 [I-17] | 236 to 237 | 293 | 
COc1c(C(=O)NC2CC2)cc(-c2ccc[nH]c2=O)cc1C(C)(C)C [I-19] | 223 to 224 | 1620 | 
CC(C)(C)c1cc(CCc2ccc(F)cc2)c(O)c(-c2ccc[nH]c2=O)c1 [I-20] | 178 to 179 | 378 | 
COc1c(CCc2ccc(F)cc2)cc(-c2ccc[nH]c2=O)cc1C(C)(C)C [I-21] | 157 to 158 | 90 | 
COc1c(CCC(=O)O)cc(-c2ccc[nH]c2=O)cc1C(C)(C)C [I-22] | 180.2 to 181.8 | 330 | 
COc1c(O)cc(-c2ccc[nH]c2=O)cc1C(C)(C)C [I-23] | 214 to 215 | 1170 | 
COc1c(C(=O)Nc2cccc(NS(C)(=O)=O)c2)cc(-c2ccc[nH]c2=O)cc1C(C)(C)C [I-259, 3-tert-Butyl-N-(3-methanesulfonylamino-phenyl)-2-methoxy-5-(2-oxo-1,2-dihydro-pyridin-3-yl)-benzamide] |  | 122 | 
COc1c(C(=O)NC2CCC(NS(C)(=O)=O)CC2)cc(-c2ccc[nH]c2=O)cc1C(C)(C)C (centres unmarked) [I-260, 3-tert-Butyl-N-(4-methanesulfonylamino-cyclohexyl)-2-methoxy-5-(2-oxo-1,2-dihydro-pyridin-3-yl)-benzamide] |  | 35 | 
COc1c(/C=C/c2ccc(NS(C)(=O)=O)cn2)cc(-c2cc(Cl)c[nH]c2=O)cc1C(C)(C)C [I-261] |  |  | 3

Compound | melting point [°C] | IC50 [1, 2] [nM] | IC50 [1, 3] [nM]
COc1c(/C=C/c2ccc(NS(C)(=O)=O)cc2)cc(-c2cc(Cl)c[nH]c2=O)cc1C1(Cl)CC1 [I-264] |  |  | 5
COc1c(/C=C/c2ccc(NS(C)(=O)=O)cc2)cc(-c2ccc(C)[nH]c2=O)cc1C1(Cl)CC1 [I-265] |  |  | 5
COc1c(/C=C/c2ccc(NS(C)(=O)=O)cc2)cc(-c2ccc[nH]c2=O)cc1C1(OC)CC1 [I-266, N-(4-{(E)-2-[3-(1-methoxycyclopropyl)-5-(2-oxo-1,2-dihydropyridin-3-yl)-2-methoxyphenyl]vinyl}-phenyl)methanesulfonamide] |  |  | 3
COc1c(/C=C/c2ccc(NS(C)(=O)=O)cc2)cc(-c2cc(F)c[nH]c2=O)cc1C1(C(F)F)CC1 [I-269, N-(4-{(E)-2-[3-(1-Difluoromethyl-cyclopropyl)-5-(5-fluoro-2-oxo-1,2-dihydro-pyridin-3-yl)-2-methoxy-phenyl]-vinyl}-phenyl)-methanesulfonamide] |  |  | 3
CS(=O)(=O)Nc1ccc(/C=C/c2cc(-c3ccc[nH]c3=O)cc(C3(F)CCC3)c2)cc1 [I-271, N-(4-{(E)-2-[3-(1-Fluoro-cyclobutyl)-5-(2-oxo-1,2-dihydro-pyridin-3-yl)-phenyl]-vinyl}-phenyl)-methanesulfonamide] |  |  | 4
CC(C)(CO)c1cc(/C=C/c2ccc(NS(C)(=O)=O)cc2)cc(-c2ccc[nH]c2=O)c1 [I-272, N-(4-{(E)-2-[3-(2-Hydroxy-1,1-dimethyl-ethyl)-5-(2-oxo-1,2-dihydro-pyridin-3-yl)-phenyl]-vinyl}-phenyl)-methanesulfonamide] |  |  | 6
CS(=O)(=O)Nc1ccc(/C=C/c2cc(-c3cc(F)c[nH]c3=O)cc(C3(Cl)CC3)c2)cc1 [I-273, N-(4-{(E)-2-[3-(1-Chloro-cyclopropyl)-5-(5-fluoro-2-oxo-1,2-dihydro-pyridin-3-yl)-phenyl]-vinyl}-phenyl)-methanesulfonamide] |  |  | 3
CS(=O)(=O)Nc1ccc(/C=C/c2cc(-c3ccc[nH]c3=O)cc(C3(Cl)CC3)c2)cc1 [I-274, N-(4-{(E)-2-[3-(1-Chloro-cyclopropyl)-5-(2-oxo-1,2-dihydro-pyridin-3-yl)-phenyl]-vinyl}-phenyl)-methanesulfonamide] |  |  | 2
CS(=O)(=O)Nc1ccc(/C=C/c2cc(-c3ccc[nH]c3=O)cc(C3(C(F)F)CC3)c2)cc1 [I-275, N-(4-{(E)-2-[3-(1-Difluoromethyl-cyclopropyl)-5-(2-oxo-1,2-dihydro-pyridin-3-yl)-phenyl]-vinyl}-phenyl)-methanesulfonamide] |  |  | 1
COCCOc1cc(NS(C)(=O)=O)ccc1C(=O)Nc1cc(-c2ccc[nH]c2=O)cc(C(C)(C)C)c1OC [I-276, N-[3-tert-Butyl-2-methoxy-5-(2-oxo-1,2-dihydro-pyridin-3-yl)-phenyl]-4-methanesulfonylamino-2-(2-methoxy-ethoxy)-benzamide] |  | 20 | 
COc1c(NC(=O)c2ccc(NC(C)=O)cc2)cc(-c2ccc[nH]c2=O)cc1C(C)(C)C [I-277] |  | 357 | 
COc1c(NC(=O)c2ccc(N)c(C)c2)cc(-c2ccc[nH]c2=O)cc1C(C)(C)C [I-278] |  | 14 | 
COc1c(NC(=O)c2ccc(N)cc2C(F)(F)F)cc(-c2ccc[nH]c2=O)cc1C(C)(C)C [I-279] |  | 104 | 
COc1c(NC(=O)c2ccc(N)cc2F)cc(-c2ccc[nH]c2=O)cc1C(C)(C)C [I-280] |  | 10 | 
COc1c(NC(=O)c2ccc(NS(C)(=O)=O)cc2F)cc(-c2ccc[nH]c2=O)cc1C(C)(C)C [I-281] |  | 7 | 
COc1c(NC(=O)c2ccc(NS(C)(=O)=O)cc2C)cc(-c2ccc[nH]c2=O)cc1C(C)(C)C [I-282] |  | 13 | 
COc1c(NC(=O)c2ccc(N)cn2)cc(-c2ccc[nH]c2=O)cc1C(C)(C)C [I-283] |  | 9 | 
COc1c(NC(=O)c2ccc(N)cc2OCCN(C)C)cc(-c2ccc[nH]c2=O)cc1C(C)(C)C [I-284] |  | 6270 | 
COc1c(NC(=O)c2ccc(NS(C)(=O)=O)cc2OCCN(C)C)cc(-c2ccc[nH]c2=O)cc1C(C)(C)C [I-285] |  | 149 | 
COc1c(NC(=O)c2ccc(NS(C)(=O)=O)cc2)cc(-c2ccc(C)[nH]c2=O)cc1C(C)(C)C [I-286] |  | 19 | 
COc1c(CCc2ccc(NS(C)(=O)=O)cc2)cc(-c2ccc[nH]c2=O)c(F)c1C(C)(C)C [I-287, N-(4-{2-[3-tert-Butyl-4-fluoro-2-methoxy-5-(2-oxo-1,2-dihydro-pyridin-3-yl)-phenyl]-ethyl}-phenyl)-methanesulfonamide] |  | 9 | 
COc1c(/C=C/c2ccc(NS(C)(=O)=O)cc2)cc(-c2ccc[nH]c2=O)cc1C(C)(C)OC [I-289, N-(4-{(E)-2-[2-Methoxy-3-(1-methoxy-1-methyl-ethyl)-5-(2-oxo-1,2-dihydro-pyridin-3-yl)-phenyl]-vinyl}-phenyl)-methanesulfonamide] |  |  | 2
COc1c(/C=C/c2ccc(NS(C)(=O)=O)cc2)cc(-c2cc(Cl)c[nH]c2=O)cc1C1(C)COC1 [I-291] |  |  | 2
COc1c(/C=C/c2ccc(NS(C)(=O)=O)cc2)cc(-c2cc(Cl)c[nH]c2=O)cc1C1CC1 [I-292, N-(4-{(E)-2-[5-(5-Chloro-2-oxo-1,2-dihydro-pyridin-3-yl)-3-cyclopropyl-2-methoxy-phenyl]-vinyl}-phenyl)-methanesulfonamide] |  |  | 29
CN(C(=O)c1ccc(NS(C)(=O)=O)cc1)c1cc(-c2ccc[nH]c2=O)cc(C(C)(C)C)c1 [I-293, N-[3-tert-Butyl-5-(2-oxo-1,2-dihydro-pyridin-3-yl)-phenyl]-4-methanesulfonylamino-N-methyl-benzamide] |  | 7 | 
CCOc1nc(-c2cc(-c3ccc[nH]c3=O)cc(C(C)(C)C)c2OC)cc2ccc(NS(C)(=O)=O)cc12 [II-9, N-{3-[3-tert-Butyl-2-methoxy-5-(2-oxo-1,2-dihydro-pyridin-3-yl)-phenyl]-1-ethoxy-isoquinolin-7-yl}-methanesulfonamide] |  | 3 | 

— patent US8273773B2 (priority 2008, dated 2012)
